These are literature values, as cited in patent US20070166344A1, “Non-leaching surface-active film compositions for microbial adhesion prevention” (priority 2006, published 2007).

The conditions of this series: organism not given.

Turning to Benzalkonium chloride, the MIC level result is listed as “about 7.5 ppm”.
